# Experiments:
# platelet P2Y12 receptor = platelet P2Y12 receptor (Homo sapiens, UniProt Q9H244); settings: well-known in the art; cited from earlier work
# S. epidermidis bacteria = assay: Radiotracer uptake into bacteria, selectivity over mammalian cells (Example 4); type: cell-based; settings: 2 MBq tracer, 1 h at 37° C.
# Protocol: S. epidermidis bacteria were grown overnight in tryptic soy broth (TSB) at 37° C., with shaking at 250 rpm. The overnight culture was diluted to OD600 0.1 and incubated until mid-exponential phase was reached. 1×10^8 CFU were resuspended in 1 ml RPMI 1640. […] Bacteria and non-adherent cells were harvested by centrifugation (600×g, 5 min) and washed three times by successive centrifugations. Cell supernatants were collected in scintillation vials. After washing, the cells were transferred into scintillation vials. Adherent cells were washed three times with fresh medium (McCoy's 5A medium plus 10% foetal bovine serum). Supernatants were collected into scintillation vials. Adherent cells were detached by trypsin treatment and placed into scintillation vials. The scintillation vials for cells and supernatants were counted by gamma counter. Results were obtained as counts per min. Results were normalised for controls (no cells) and by calculating the percentage of activity in the cell containing scintillation vials compared with the total counts (cells and supernatant combined).
# THP1 cells = assay: Radiotracer uptake into THP1 cells; type: cell-based, human; settings: 2 MBq tracer, 1 h at 37° C.
# Protocol: (§1) THP1 (ATCC® TIB-202™) and HL60 (ATCC® CCL-240™) cell lines were grown in RPMI 1640 tissue culture medium supplemented with L-glutamine, 10% foetal calf serum and 1% penicillin/streptomycin at 37° C. and 5% CO2. HT29 cell line (ATCC® HTB-38) was grown in McCoy's 5A medium and 10% foetal bovine serum at 37° C. and 5% CO2.
# (§2) Non-adherent cell lines (HL60, THP1; 1×10^6 cells ml^−1) were harvested, washed and resuspended in 1 ml tissue culture medium. The adherent cells HT29 were maintained in 6-well plates at 80% confluence.
# (§3) Bacteria and non-adherent cells were harvested by centrifugation (600×g, 5 min) and washed three times by successive centrifugations. Cell supernatants were collected in scintillation vials. After washing, the cells were transferred into scintillation vials. Adherent cells were washed three times with fresh medium (McCoy's 5A medium plus 10% foetal bovine serum). Supernatants were collected into scintillation vials. Adherent cells were detached by trypsin treatment and placed into scintillation vials. The scintillation vials for cells and supernatants were counted by gamma counter. Results were obtained as counts per min. Results were normalised for controls (no cells) and by calculating the percentage of activity in the cell containing scintillation vials compared with the total counts (cells and supernatant combined).
# [1] = tested on: platelet suspensions containing bacteria; assay: Radiotracer uptake into platelet suspensions containing bacteria; type: cell-based, human; settings: 2 MBq tracer, 1 h at 37° C.
# Protocol: Preparation of human washed platelets: a Blood sample was collected from healthy volunteers on Acid Citrate Dextrose (ACD: 93 mM Na3-citrate, 7 mM citric acid, 14 mM dextrose, pH 6.0) containing 1 U/ml apyrase in a volume ratio of ACD to blood of 1:6. Blood was centrifuged for 5 s at 800×g followed by 5 min at 100×g to obtain platelet rich plasma (PRP). PRP was diluted 3-fold in ACD containing 1 U/ml apyrase ((Apyrase from potatoes, Grade I (A6132 Sigma-Aldrich)) and centrifuged at 1000×g to obtain a platelet pellet. The platelet pellet was resuspended at a concentration of 3×10^8 ml^−1 in Tyrode's buffer (137 mM NaCl, 12 mM NaHCO3, 2 mM KCl, 0.34 mM Na2HPO4, 1 mM MgCl2, 5.5 mM glucose, 5 mM Hepes, 0.35% Bovine Serum Albumine from Sigma Aldrich A3294) and Hepes refers to 4-(2-Hydroxyethyl)piperazine-1-ethanesulfonic acid, N-(2-Hydroxyethyl)piperazine-N′-(2-ethanesulfonic acid) (H4034, Sigma-Aldrich).
# Bacteria and platelets were harvested by centrifugation (1000×g, 10 min) and washed three times by successive centrifugations (1000×g for 10 min). Supernatants were collected in scintillation vials. After washing, the cells were transferred into scintillation vials. Cells and supernatants were counted by gamma counter (2470 Wizard^2™ (Perkin Elmer))
# Results were obtained as counts per min. […]
# HT29 cells = assay: Radiotracer uptake into HT29 cells; type: cell-based, human; settings: 2 MBq tracer, 1 h at 37° C.
# Protocol: as §1, §2, §3
# HL60 cells = assay: Radiotracer uptake into HL60 cells; type: cell-based, human; settings: 2 MBq tracer, 1 h at 37° C.
# Protocol: as §1, §2, §3
# Chain of platelet P2Y12 receptor (Q9H244 whole entry): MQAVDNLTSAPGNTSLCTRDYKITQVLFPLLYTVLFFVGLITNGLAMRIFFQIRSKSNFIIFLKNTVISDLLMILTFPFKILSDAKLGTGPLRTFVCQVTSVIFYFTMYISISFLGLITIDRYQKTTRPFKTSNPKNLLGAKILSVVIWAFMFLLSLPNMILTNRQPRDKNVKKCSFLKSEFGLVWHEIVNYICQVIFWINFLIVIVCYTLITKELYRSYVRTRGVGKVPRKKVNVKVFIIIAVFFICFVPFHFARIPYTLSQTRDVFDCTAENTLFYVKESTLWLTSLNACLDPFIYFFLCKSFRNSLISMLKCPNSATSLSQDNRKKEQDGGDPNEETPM
Structure (SMILES),binding to platelet P2Y12 receptor (platelet P2Y12 receptor),uptake into bacteria (S. epidermidis bacteria),uptake into THP1 (leukocytic) cells (THP1 cells),"relative activity associated with the cell mixture, relative to the activity of 18F-FDG [1]",uptake into HT29 (tumor) cells (HT29 cells),uptake into HL-60 (leukocytic) cells (HL60 cells)
CCCSc1nc(N[C@@H]2C[C@H]2c2ccc(F)c(F)c2)c2nnn([C@@H]3C[C@H](OCCO)[C@@H](O)[C@H]3O)c2n1 [Triafluocyl],binds the platelet P2Y12 receptor reversibly,–,–,–,–,–
"CCCSc1nc(NC2CC2c2ccc([18F])c(F)c2)c2nnn([C@@H]3C[C@H](OCCO)[C@@H](O)[C@H]3O)c2n1 (stereo partly drawn) [^18F-Triafluocyl, (1S,2S,3R,5S)-3-(7-((2-(3-fluoro-4-(fluoro-^18F)phenyl)cyclopropyl)amino)-5-(propylthio)-3H-[1,2,3]triazolo[4,5-d]pyrimidin-3-yl)-5-(2-hydroxyethoxy)cyclopentane-1,2-diol]",–,uptake into bacteria,no uptake was observed,about 10 fold,no uptake was observed,no uptake was observed
